Laboratory results reported in patent publication US12648979B2, “Compositions comprising sulforaphane or a sulforaphane precursor and Moringa plant components” (Nutramax Laboratories, Inc., priority 2021, dated 2026).

How the values were obtained:
[1] = system: broccoli sprout-derived myrosinase; experiment: Consumption of glucoraphanin by myrosinase as a function of ascorbic acid concentration (Example 3); type: biochemical
Procedure: A […] Interaction Chromatographic (HILIC) method was developed, comprising the following conditions: • Column: Waters BEH Amide, 1.7-μm particle size; 2.1 mm×100 mm; • Mobile Phase: 20% 10 mM Ammonium Acetate, pH 5.0; 80% acetonitrile; • Separation mode: isocratic; • Column Temperature: 70° C.; • Flow Rate: 0.7 mL/min.
About 250 mg of broccoli seed extract containing about 12% (w/w) glucoraphanin were subjected to hydrolysis by a fixed concentration of broccoli sprout-derived myrosinase in the presence of variable concentration of ascorbic acid, ranging from 0 to 600 μmoles/Liter. The reaction mixtures were thermostated at 38° C.; aliquots were withdrawn every 15 minutes for 60 minutes, and concentration of glucoraphanin determined chromatographically. The rate of glucoraphanin consumption was interpreted as the rate its conversion to sulforaphane. Graphical representation of glucoraphanin content reduction as a function of increasing ascorbic acid concentration results in a series of linear plots; the slopes of the linear regression lines reflect the rate of glucoraphanin consumption, in pmoles/minute. It is apparent that in the presence of 600 μmoles/Liter concentration of ascorbic acid, the reaction rate increased 13-fold relative to that which proceeded in the absence of modulatory effects of ascorbic acid.

[2] = system: myrosinase; experiment: Equimolar conversion of glucoraphanin to sulforaphane by myrosinase, HPLC (Example 4); type: biochemical, broccoli
Procedure: A two-part experiment was conducted to further elucidate the role of ascorbic acid in modulating myrosinase activity. All solutions were prepared in 20 mM Tris-buffered saline, at pH 7.5, previously identified as an optimal for myrosinase activity; each sample tube had 100 mg of freeze-dried broccoli powder accurately weighed in as a source of myrosinase. Experiment was conducted at 38° C. for 2 hours, with sample aliquots removed in 30-minute increments, and both glucoraphanin and sulforaphane content assessed by HPLC. […] A control sample contained no ascorbic acid, and the enzymatic conversion proceeded unassisted by a co-factor. PART 1. In the presence of the fixed concentration of ascorbic acid, 1 mmol/Liter, an increasing amount of broccoli seed extract (about 12% glucoraphanin, w/w) was added, ranging from 250 mg to 500 mg. PART 2. While keeping the amount of broccoli seed extract fixed at 250 mg, the concentration of ascorbic acid was varied from 0.4 mmol/Liter to 3.8 mmol/Liter.

[3] = GR 250 mg AA 0.0 mM (control), 0 min
[4] = GR 250 mg AA 0.0 mM (control), 30 min
[5] = GR 250 mg AA 0.0 mM (control), 60 min
[6] = GR 250 mg AA 0.0 mM (control), 90 min
[7] = GR 250 mg AA 0.0 mM (control), 120 min
[8] = PART 1, GR 250 mg AA 1.0 mM, 0 min
[9] = PART 2, GR 250 mg AA 1.0 mM, 0 min

Glucoraphanin [2, 3]: 58.02 µmol
Sulforaphane [2, 3]: 3.42 µmol
Glucoraphanin [2, 4]: 48.57 µmol
Sulforaphane [2, 4]: 12.08 µmol
Glucoraphanin [2, 5]: 37.52 µmol
Sulforaphane [2, 5]: 22.27 µmol
Glucoraphanin [2, 6]: 28.58 µmol
Sulforaphane [2, 6]: 33.17 µmol
Glucoraphanin [2, 7]: 15.67 µmol
Sulforaphane [2, 7]: 42.89 µmol
Glucoraphanin ([2]; GR 250 mg AA 0.4 mM, 0 min): 45.66 µmol
Sulforaphane ([2]; GR 250 mg AA 0.4 mM, 0 min): 15.96 µmol
Sulforaphane ([2]; GR 250 mg AA 0.4 mM, 30 min): 62.06 µmol
Sulforaphane ([2]; GR 250 mg AA 0.4 mM, 60 min): 61.01 µmol
Sulforaphane ([2]; GR 250 mg AA 0.4 mM, 90 min): 60.88 µmol
Sulforaphane ([2]; GR 250 mg AA 0.4 mM, 120 min): 56.90 µmol
Glucoraphanin ([2]; GR 250 mg AA 2.0 mM, 0 min): 24.94 µmol
Sulforaphane ([2]; GR 250 mg AA 2.0 mM, 0 min): 36.05 µmol
Sulforaphane ([2]; GR 250 mg AA 2.0 mM, 30 min): 60.85 µmol
Sulforaphane ([2]; GR 250 mg AA 2.0 mM, 60 min): 59.78 µmol
Sulforaphane ([2]; GR 250 mg AA 2.0 mM, 90 min): 59.85 µmol
Sulforaphane ([2]; GR 250 mg AA 2.0 mM, 120 min): 58.08 µmol
Glucoraphanin ([2]; GR 250 mg AA 2.9 mM, 0 min): 22.24 µmol
Sulforaphane ([2]; GR 250 mg AA 2.9 mM, 0 min): 38.20 µmol
Sulforaphane ([2]; GR 250 mg AA 2.9 mM, 30 min): 59.95 µmol
Sulforaphane ([2]; GR 250 mg AA 2.9 mM, 60 min): 59.34 µmol
Sulforaphane ([2]; GR 250 mg AA 2.9 mM, 90 min): 58.77 µmol
Sulforaphane ([2]; GR 250 mg AA 2.9 mM, 120 min): 56.99 µmol
Glucoraphanin ([2]; GR 250 mg AA 3.8 mM, 0 min): 21.70 µmol
Sulforaphane ([2]; GR 250 mg AA 3.8 mM, 0 min): 37.87 µmol
Sulforaphane ([2]; GR 250 mg AA 3.8 mM, 30 min): 58.77 µmol
Sulforaphane ([2]; GR 250 mg AA 3.8 mM, 60 min): 57.79 µmol
Sulforaphane ([2]; GR 250 mg AA 3.8 mM, 90 min): 58.41 µmol
Sulforaphane ([2]; GR 250 mg AA 3.8 mM, 120 min): 56.17 µmol
Glucoraphanin ([2]; GR 300 mg AA 1.0 mM, 0 min): 49.31 µmol
Sulforaphane ([2]; GR 300 mg AA 1.0 mM, 0 min): 24.18 µmol
Sulforaphane ([2]; GR 300 mg AA 1.0 mM, 30 min): 74.40 µmol
Sulforaphane ([2]; GR 300 mg AA 1.0 mM, 60 min): 73.04 µmol
Sulforaphane ([2]; GR 300 mg AA 1.0 mM, 90 min): 72.19 µmol
Sulforaphane ([2]; GR 300 mg AA 1.0 mM, 120 min): 70.56 µmol
Glucoraphanin ([2]; GR 350 mg AA 1.0 mM, 0 min): 61.41 µmol
Sulforaphane ([2]; GR 350 mg AA 1.0 mM, 0 min): 25.00 µmol
Sulforaphane ([2]; GR 350 mg AA 1.0 mM, 30 min): 84.92 µmol
Sulforaphane ([2]; GR 350 mg AA 1.0 mM, 60 min): 84.02 µmol
Sulforaphane ([2]; GR 350 mg AA 1.0 mM, 90 min): 83.19 µmol
Sulforaphane ([2]; GR 350 mg AA 1.0 mM, 120 min): 80.02 µmol
Glucoraphanin ([2]; GR 400 mg AA 1.0 mM, 0 min): 71.35 µmol
Sulforaphane ([2]; GR 400 mg AA 1.0 mM, 0 min): 26.71 µmol
Glucoraphanin ([2]; GR 400 mg AA 1.0 mM, 30 min): 1.56 µmol
Sulforaphane ([2]; GR 400 mg AA 1.0 mM, 30 min): 96.60 µmol
Sulforaphane ([2]; GR 400 mg AA 1.0 mM, 60 min): 95.38 µmol
Sulforaphane ([2]; GR 400 mg AA 1.0 mM, 90 min): 93.39 µmol
Sulforaphane ([2]; GR 400 mg AA 1.0 mM, 120 min): 91.16 µmol
Glucoraphanin ([2]; GR 500 mg AA 1.0 mM, 0 min): 89.41 µmol
Sulforaphane ([2]; GR 500 mg AA 1.0 mM, 0 min): 33.52 µmol
Glucoraphanin ([2]; GR 500 mg AA 1.0 mM, 30 min): 1.01 µmol
Sulforaphane ([2]; GR 500 mg AA 1.0 mM, 30 min): 120.16 µmol
Sulforaphane ([2]; GR 500 mg AA 1.0 mM, 60 min): 116.45 µmol
Sulforaphane ([2]; GR 500 mg AA 1.0 mM, 90 min): 118.45 µmol
Sulforaphane ([2]; GR 500 mg AA 1.0 mM, 120 min): 112.34 µmol
Glucoraphanin [2, 8]: 40.07 µmol
Sulforaphane [2, 8]: 21.51 µmol
Sulforaphane ([2]; PART 1, GR 250 mg AA 1.0 mM, 30 min): 61.95 µmol
Sulforaphane ([2]; PART 1, GR 250 mg AA 1.0 mM, 60 min): 60.20 µmol
Sulforaphane ([2]; PART 1, GR 250 mg AA 1.0 mM, 90 min): 60.04 µmol
Sulforaphane ([2]; PART 1, GR 250 mg AA 1.0 mM, 120 min): 58.25 µmol
Glucoraphanin [2, 9]: 35.24 µmol
Sulforaphane [2, 9]: 26.49 µmol
Sulforaphane ([2]; PART 2, GR 250 mg AA 1.0 mM, 30 min): 62.19 µmol
Sulforaphane ([2]; PART 2, GR 250 mg AA 1.0 mM, 60 min): 60.62 µmol
Sulforaphane ([2]; PART 2, GR 250 mg AA 1.0 mM, 90 min): 60.41 µmol
Sulforaphane ([2]; PART 2, GR 250 mg AA 1.0 mM, 120 min): 59.10 µmol
time to complete conversion of glucoraphanin to sulforaphane ([2]; almost all the reaction mixtures): ≤ 30 min
SMILES: C[S+]([O-])CCCC/C(=N\OS(=O)(=O)O)S[C@@H]1O[C@H](CO)[C@@H](O)[C@H](O)[C@H]1O (some centres unmarked) [GR, 4-methylsulfinylbutyl glucosinolate]
Slope (rate of glucoraphanin consumption) ([1]; ascorbic acid 0 μM): -0.09293 µmol/min
Glucoraphanin content (μmoles GR) ([1]; ascorbic acid 0 μM, 0 min): 93.36 µmol
Glucoraphanin content (μmoles GR) ([1]; ascorbic acid 0 μM, 15 min): 92.24 µmol
Glucoraphanin content (μmoles GR) ([1]; ascorbic acid 0 μM, 30 min): 90.71 µmol
Glucoraphanin content (μmoles GR) ([1]; ascorbic acid 0 μM, 45 min): 89.44 µmol
Glucoraphanin content (μmoles GR) ([1]; ascorbic acid 0 μM, 60 min): 87.79 µmol
Slope (rate of glucoraphanin consumption) ([1]; ascorbic acid 50 μM): -0.286 µmol/min
Glucoraphanin content (μmoles GR) ([1]; ascorbic acid 50 μM, 0 min): 93.36 µmol
Glucoraphanin content (μmoles GR) ([1]; ascorbic acid 50 μM, 15 min): 89.20 µmol
Glucoraphanin content (μmoles GR) ([1]; ascorbic acid 50 μM, 30 min): 84.24 µmol
Glucoraphanin content (μmoles GR) ([1]; ascorbic acid 50 μM, 45 min): 80.30 µmol
Glucoraphanin content (μmoles GR) ([1]; ascorbic acid 50 μM, 60 min): 76.36 µmol
Slope (rate of glucoraphanin consumption) ([1]; ascorbic acid 125 μM): -0.5622 µmol/min
Glucoraphanin content (μmoles GR) ([1]; ascorbic acid 125 μM, 0 min): 93.36 µmol
Glucoraphanin content (μmoles GR) ([1]; ascorbic acid 125 μM, 15 min): 84.52 µmol
Glucoraphanin content (μmoles GR) ([1]; ascorbic acid 125 μM, 30 min): 75.92 µmol
Glucoraphanin content (μmoles GR) ([1]; ascorbic acid 125 μM, 45 min): 68.09 µmol
Glucoraphanin content (μmoles GR) ([1]; ascorbic acid 125 μM, 60 min): 59.41 µmol
Slope (rate of glucoraphanin consumption) ([1]; ascorbic acid 250 μM): -0.7901 µmol/min
Slope (rate of glucoraphanin consumption) ([1]; ascorbic acid 250 μM Filtered): -0.4714 µmol/min
Glucoraphanin content (μmoles GR) ([1]; ascorbic acid 250 μM Filtered, 0 min): 93.36 µmol
Glucoraphanin content (μmoles GR) ([1]; ascorbic acid 250 μM Filtered, 15 min): 86.31 µmol
Glucoraphanin content (μmoles GR) ([1]; ascorbic acid 250 μM Filtered, 30 min): 79.44 µmol
Glucoraphanin content (μmoles GR) ([1]; ascorbic acid 250 μM Filtered, 45 min): 71.94 µmol
Glucoraphanin content (μmoles GR) ([1]; ascorbic acid 250 μM Filtered, 60 min): 65.18 µmol
Glucoraphanin content (μmoles GR) ([1]; ascorbic acid 250 μM, 0 min): 93.36 µmol
Glucoraphanin content (μmoles GR) ([1]; ascorbic acid 250 μM, 15 min): 80.95 µmol
Glucoraphanin content (μmoles GR) ([1]; ascorbic acid 250 μM, 30 min): 69.06 µmol
Glucoraphanin content (μmoles GR) ([1]; ascorbic acid 250 μM, 45 min): 57.63 µmol
Glucoraphanin content (μmoles GR) ([1]; ascorbic acid 250 μM, 60 min): 45.76 µmol
Slope (rate of glucoraphanin consumption) ([1]; ascorbic acid 400 μM): -1.007 µmol/min
Glucoraphanin content (μmoles GR) ([1]; ascorbic acid 400 μM, 0 min): 93.36 µmol
Glucoraphanin content (μmoles GR) ([1]; ascorbic acid 400 μM, 15 min): 78.32 µmol
Glucoraphanin content (μmoles GR) ([1]; ascorbic acid 400 μM, 30 min): 62.78 µmol
Glucoraphanin content (μmoles GR) ([1]; ascorbic acid 400 μM, 45 min): 47.67 µmol
Glucoraphanin content (μmoles GR) ([1]; ascorbic acid 400 μM, 60 min): 33.15 µmol
Slope (rate of glucoraphanin consumption) ([1]; ascorbic acid 600 μM): -1.2 µmol/min
Glucoraphanin content (μmoles GR) ([1]; ascorbic acid 600 μM, 0 min): 93.36 µmol
Glucoraphanin content (μmoles GR) ([1]; ascorbic acid 600 μM, 15 min): 75.02 µmol
Glucoraphanin content (μmoles GR) ([1]; ascorbic acid 600 μM, 30 min): 55.66 µmol
Glucoraphanin content (μmoles GR) ([1]; ascorbic acid 600 μM, 45 min): 37.50 µmol
Glucoraphanin content (μmoles GR) ([1]; ascorbic acid 600 μM, 60 min): 22.09 µmol
stoichiometry of conversion of glucoraphanin to sulforaphane ([2]; control sample, without ascorbic acid): equimolar conversion of glucoraphanin to sulforaphane
